Here are results for five molecules from patent US7638036B2, “Redox potential mediated carbon nanotubes biosensing in homogeneous format” (E. I. du Pont de Nemours and Company, priority 2004, dated 2009).

The test system of experiment [1] is Trametes versicolor laccase. Nature of the experiment: Laccase inhibitor evaluation: rate of ABTS^−2 oxidation at varied inhibitor and substrate concentrations (1/V versus [I] plots). It is filed as biochemical. On the procedure:
High potential quinones/quinols were screened to identify those with characteristics that would be suitable for use as an inhibitor of laccase, to be used in an activity switch.
Compounds were evaluated by varying the concentrations of inhibitor and substrate (ABTS^−2) and measuring under each condition the rate of ABTS^−2 oxidation. […] Tetrachloro-o-quinol and tetrafluoro-o-quinol, shown in Diagram I, had Kds, of 7-9 μM and 2.5 μM, respectively, as determined from the data in FIG. 12.
After the addition of sodium cyanoborohydride (6 mg, 100 nmol), the reaction mixture was stirred for an additional 2 hours, washed with water (2×0.5 mL) and dried on a rotavap.

For experiment [2], the system named is Trametes versicolor laccase. Nature of the experiment: Laccase assay: ABTS^−2 oxidation followed by absorbance change at 436 nm, with and without NaF. Format: biochemical. Particulars: 1 mM NaF; 5 mM ABTS^−2 in 50 mM Glycine pH 3.0.
Experiment [3] deals with laccase Type I copper center. In words: Laccase 600 nm absorbance peak on inhibitor binding. On the set-up: species or system Trametes versicolor. Particulars: charge-transfer band of Type I copper center. An excerpt: This conclusion was strengthened by the observation that the binding of tetrachloro-o-quinol to laccase caused a decrease in the amplitude of the laccase 600 nm absorbance peak, dominated by a charge-transfer band involving the Type I copper center and its cysteinyl ligand.

[4] abbreviates: inhibitor of laccase, substrate ABTS^−2, read-out: Kd (dissociation constant of the inhibitor, −Ki at intersection point).

Where a name gives a salt, the structure may show the parent alone. Read-outs that look alike come from different tables or passages of the source.

Take `Oc1c(O)c(F)c(F)c(F)c1F` [tetrafluoro-o-quinol]: the Kd (as a rule, the constant that tells how readily two partners part at equilibrium) in experiment [1] (setting [4]) was 2.5 µM.

With `Oc1c(Cl)c(Cl)c(O)c(Cl)c1Cl` [tetrachloro-p-quinol, reference compound], in experiment [1] (substrate ABTS^−2), the “activity as laccase inhibitor” value is “inactive as an inhibitor”.

`[F-].[Na+]` [NaF]: the “inhibition of laccase activity” value in experiment [2] came out at 95%.

In the case of `Oc1c(O)c(Cl)c(Cl)c(Cl)c1Cl` [Tetrachloro-o-quinol], the Kd in experiment [1] (setting [4]) fell in the range of 7 to 9 µM. For the same molecule, the “activity as laccase inhibitor” value in experiment [1] (substrate ABTS^−2) was “effective inhibitor”. In addition, the “amplitude of the laccase 600 nm absorbance peak on binding” value in experiment [3] is on record as “decrease”.

As for `CCn1c(=NN=c2sc3cc(S(=O)(=O)O)ccc3n2CC)sc2cc(S(=O)(=O)O)ccc21` [ABTS^−2, 2,2′-azino-bis(3-ethylbenz-thiazoline-6-sulfonate) diammonium salt, reference compound], the dissociation constant Kd in experiment [1] (substrate binding to laccase, read-out: dissociation constant, Kd of the laccase substrate) lay in the range of 120 to 240 µM.
